According to PMC6563031, “Polyketides from the Mangrove-Derived Endophytic Fungus Cladosporium cladosporioides” (Marine Drugs, 2019):
Values after ≈ are worked out from the molar mass of the structure shown. Where two headings read alike, the source gives them in different places.

Legend:
[1] = tested on: Glomerella cingulate QDAU-12; assay: Antimicrobial 96-well microtiter plate assay, G. cingulate; type: cell-based; details: amphotericin B as positive control
[2] = tested on: F. oxysporum f. sp. cucumerinum QDAU-8; assay: Antimicrobial 96-well microtiter plate assay, F. oxysporum f. sp. cucumerinum; type: cell-based, Fusarium oxysporum f. sp. cucumerinum; details: amphotericin B as positive control
[3] = tested on: Bipolaris sorokiniana QDAU-5; assay: Antimicrobial 96-well microtiter plate assay, B. sorokiniana; type: cell-based
[4] = tested on: Pseudomonas aeruginosa QDIO-4; assay: Antimicrobial 96-well microtiter plate assay, P. aeruginosa; type: cell-based; details: amphotericin B as positive control (as footnoted)
[5] = tested on: Staphylococcus aureus EMBLC-2; assay: Antimicrobial 96-well microtiter plate assay, S. aureus; type: cell-based
[6] = tested on: E. tarda QDIO-2; assay: Antimicrobial 96-well microtiter plate assay, E. tarda; type: cell-based, Edwardsiella tarda
[7] = tested on: Edwardsiella ictarda QDIO-9; assay: Antimicrobial 96-well microtiter plate assay, E. ictarda; type: cell-based; details: chloramphenicol as positive control
[8] = tested on: Escherichia coli EMBLC-1; assay: Antimicrobial 96-well microtiter plate assay, E. coli; type: cell-based
[9] = Fusarium oxysporum, read-out: MIC
[10] = Bipolaris sorokiniana, QDAU5, amphotericin B as positive control, read-out: MIC
[11] = Pseudomonas aeruginosa, QDIO4, P. aeruginosa, read-out: MIC
[12] = Staphylococcus aureus, EMBLC2, chloramphenicol as positive control, read-out: MIC
[13] = Edwardsiella tarda, QDIO2, chloramphenicol as positive control, read-out: MIC
[14] = Edwardsiella, QDIO9, E. ictarda, read-out: MIC
[15] = Escherichia coli, EMBLC1, chloramphenicol as positive control, read-out: MIC
[16] = chloramphenicol as positive control

SMILES	MIC ([1]; read-out: MIC)	MIC [2, 9]	MIC [3, 10]	MIC [4, 11]	MIC [5, 12]	MIC [6, 13]	MIC [7, 14]	MIC [8, 15]	MIC [1]	MIC [5, 16]	MIC [2]	MIC [6, 16]	MIC ([3]; amphotericin B as positive control)	MIC ([4]; P. aeruginosa)	MIC ([7]; E. ictarda)	MIC [8, 16]
C[C@@H]1[C@H](O)[C@@H](C)/C=C/C=C/C=C/C=C/C=C/C=C/C=C/[C@H](O[C@@H]2O[C@H](C)[C@@H](O)[C@H](N)[C@@H]2O)C[C@@H]2O[C@](O)(C[C@@H](O)C[C@@H](O)[C@H](O)CC[C@@H](O)C[C@@H](O)CC(=O)O[C@H]1C)C[C@H](O)[C@H]2C(=O)O [Amphotericin B, reference compound]	0.5 µg/mL (≈ 0.541 µM)	0.5 µg/mL (≈ 0.541 µM)	0.5 µg/mL (≈ 0.541 µM)	2 µg/mL (≈ 2.16 µM)												
O=C(N[C@H](CO)[C@H](O)c1ccc([N+](=O)[O-])cc1)C(Cl)Cl [Chloramphenicol, reference compound]					1 µg/mL (≈ 3.09 µM)	0.5 µg/mL (≈ 1.55 µM)	0.5 µg/mL (≈ 1.55 µM)	2 µg/mL (≈ 6.19 µM)								
CC1CC=CCCC(O)CCCC(=O)O1 (stereo not drawn) [Compound 1, 5R-hydroxyrecifeiolide]		> 64 µg/mL	> 64 µg/mL	32 µg/mL (≈ 151 µM)	> 64 µg/mL	> 64 µg/mL	32 µg/mL (≈ 151 µM)	> 64 µg/mL	– ((–) = MIC > 64 μg/mL)							
CC1CC=CCCC(O)CCCC(=O)O1 (stereo not drawn) [Compound 2, 5S-hydroxyrecifeiolide]									16 µg/mL (≈ 75.4 µM)	– ((–) = MIC > 64 μg/mL)	– ((–) = MIC > 64 μg/mL)	– ((–) = MIC > 64 μg/mL)	– ((–) = MIC > 64 μg/mL)	– ((–) = MIC > 64 μg/mL)	– ((–) = MIC > 64 μg/mL)	– ((–) = MIC > 64 μg/mL)
CC(O)CCCCCCC1OC(=O)CC1O (stereo not drawn) [Compound 3, ent-cladospolide F]	> 64 µg/mL	> 64 µg/mL	> 64 µg/mL	64 µg/mL (≈ 278 µM)	8 µg/mL (≈ 34.7 µM)	> 64 µg/mL	16 µg/mL (≈ 69.5 µM)	> 64 µg/mL								
CC(=O)OC(C)CCCCCCC1OC(=O)CC1O (centres unmarked) [Compound 4, cladospolide G]	1 µg/mL (≈ 3.67 µM)	1 µg/mL (≈ 3.67 µM)	32 µg/mL (≈ 117 µM)	> 64 µg/mL	> 64 µg/mL	> 64 µg/mL	> 64 µg/mL	32 µg/mL (≈ 117 µM)								
CC(O)CCCCCC(O)C1C=CC(=O)O1 (centres unmarked) [Compound 6, iso-cladospolide B]	64 µg/mL (≈ 280 µM)	> 64 µg/mL	> 64 µg/mL	> 64 µg/mL	> 64 µg/mL	32 µg/mL (≈ 140 µM)	16 µg/mL (≈ 70.1 µM)	32 µg/mL (≈ 140 µM)								
C[C@H]1CCCCC[C@H](O)C(=O)[C@H](O)CC(=O)O1 [Compound 7, pandangolide 1]	1 µg/mL (≈ 4.09 µM)	> 64 µg/mL	> 64 µg/mL	32 µg/mL (≈ 131 µM)	32 µg/mL (≈ 131 µM)	> 64 µg/mL	4 µg/mL (≈ 16.4 µM)	> 64 µg/mL								
